Measurements reported in patent publication US20220160703A1, “TUMOR-SELECTIVE COMBINATION THERAPY” (The Board of Regents of The University of Texas System, priority 2019, published 2022).

Tests used:
[1] = tested on: NQO1 positive tumor cell lines MC38, TC-1 and Ag104Ld; type: cell-based; conditions: MC38 and B16 NQO1 cells, β-lap 3 hr, catalase 1000 U/ml, survival 48 hr later
Description: (FIG. 1A) NQO1 positive tumor cell lines MC38, TC-1 and Ag104Ld and NQO1 negative cell lines Panc02 and B16 grown in 48-well plates were treated with β-lap (0-8 μM) for a 3 hr followed by washing and replacing medium. Cell viability was determined by Sulforhodamine B (SRB) Assay 4 days later. […] (FIG. 1C) MC38 cells with CRISPR-based NQO1 Knockout (MC38 NQO1KO #5) planted in 96-well plates were exposed to β-lap for 3 hr and cell survival was assessed 48 hr later. […] (FIG. 1E) MC38 cells were exposed to a lethal dose of β-lap (4 μM) for indicated times, then stained with 7-AAD and Annexin V followed by flow cytometry analysis. […] (FIG. 1H) MC38 and B16 NQO1 #1 cells were exposed to β-lap for a 3 hr. Catalase (1000 U/ml) was added and cell survival was assessed 48 hr later. (FIG. 1I) C57BL/6 mice (n=5/group) were transplanted with MC38 cells and treated with β-lap (0.03 mg, 0.1 mg or 0.3 mg, intratumorally; or 25 mg/kg, i.v.) every other day for four times. […] Tumor growth was monitored twice a week.
(FIG. 8A) NQO1 expression in multiple murine tumor lines was immunoblotted as indicated. […] Drugs were removed and survival assessed 5 days later. (FIG. 8C) Relative H2O2 levels were assessed in various cells treated with β-lap for 3 h at the indicated doses using CellRox-Glo. […] (FIG. 8D) TC-1 cells exposure to β-lap for 12 h, later PARP-1 and Caspase-3 levels were analyzed by western blotting assay. […]
(FIGS. 14A-C) NQO1 cells MC38 (A) and TC-1 (B) and NQO1^− cells B16 (C) were treated for 2 h with various doses of IB-DNQ±DIC (50 μM). Drugs were removed and survival assessed 6 days later. […] (FIGS. 14E-F) Relative NAD^+ (E) or ATP (F) levels were assessed in TC-1 cells exposed to various doses of IB-DNQ for 2 h. […] Comet tail lengths in a.u. were monitored at indicated time; and DSBs quantified by γH2AX foci/nuclei using immunofluorescence at indicated time (FIG. 14H). […]
(FIG. 21A) Viability of murine cell lines following IB-DNQ treatment for 4 h. […] (FIGS. 21D-E) DNA double strand break was assessed via comet assay (FIG. 21D) and γH2AX foci/nuclei immunofluorescence (FIG. 21E). […]

[2] = Formulation of DNQ compounds in HPβCD; type: physicochemical
From the text: This same neutral solution of DNQ in HPβCD cannot be made directly (i.e. without pH adjustment). […] The only proton on DNQ that might reasonably be deprotonated in aqueous base is the N—H. […] The protocol for formulating DNQ compounds in HPβCD is as follows: the DNQ compound is slurried in a 20% solution of HPβCD in pH 7.4 PBS and the pH is then increased by the addition of 10 M NaOH to induce dissolution of the DNQ compound. The pH is returned to pH 7.5-8.0 by the careful addition of 1 M HCl. A 3.3 mM solution of the DNQ compound can be made by this method which is stable at least 24 hours. This represents a 30-fold increase in solubility of DNQ over PBS alone. The inventors initially chose a 20% HPβCD solution.

NQO1 = NQO1 (Homo sapiens, UniProt P15559); test: NQO1-catalyzed futile redox cycle / processing in vitro; type: biochemical; conditions: compared with β-lap
[3] = Aqueous solubility of DNQ in PBS by LC-MS; type: physicochemical; conditions: pH 7.4 phosphate buffered saline, 30 min sonication, filtered
Description: The aqueous solubility of DNQ at pH 7.4 in phosphate buffered saline (PBS) was measured by LC-MS. DNQ was sonicated for 30 minutes in PBS then undissolved solid was removed by filtration through a 0.45 μm syringe filter and the filtrate was analyzed by LC-MS (λ=275 nm, ESI-TOF in negative mode). The optimal sonication time was determined by sonicating DNQ for 1, 5, 10, and 30 minutes. While the concentration of DNQ in solution increased substantially between 1, 5, and 10 minutes, there was only a minor difference between 10 and 30 minutes. During the 30-minute sonication the water bath warmed to 45° C. (samples were cooled to room temperature before filtration). A calibration curve was generated from 1-100 μM by dissolving DNQ in methanol to a concentration of 500 μM and making dilutions of this stock in 80:20 water:methanol. The calibration curve (measure by UV absorbance) was linear over this range; 1 μM was approximately the limit of detection. […] The solution was very pale yellow.

Sequence of NQO1 (P15559 whole entry, species assumed): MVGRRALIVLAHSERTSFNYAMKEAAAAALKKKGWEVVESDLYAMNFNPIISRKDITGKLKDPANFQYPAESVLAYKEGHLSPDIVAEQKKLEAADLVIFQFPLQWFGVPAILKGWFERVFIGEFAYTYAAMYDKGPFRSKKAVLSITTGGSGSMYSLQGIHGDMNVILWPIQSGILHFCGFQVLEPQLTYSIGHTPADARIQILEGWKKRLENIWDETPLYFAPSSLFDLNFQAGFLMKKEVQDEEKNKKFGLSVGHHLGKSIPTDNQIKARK

| stability of the HPβCD solution ([2]; 3.3 mM solution in 20% HPβCD) | increase in solubility over PBS alone ([2]; 20% HPβCD) | concentration of solution that can be made in HPβCD ([2]; 20% HPβCD in pH 7.4 PBS, pH raised with NaOH then returned to pH 7.5-8.0) | concentration of solution permitted by 40% HPβCD ([2]; 40% HPβCD, concentration increases linearly with HPβCD) | efficiency of processing by NQO1 in vitro (NQO1) | solubility of DNQ in PBS [3] | Molecule | effect of H2O2 scavenging on β-lap lethality [1] |
| --- | --- | --- | --- | --- | --- | --- | --- |
| – | – | – | – | – | – | Catalase | significantly spared β-lap-mediated lethality |
| at least 24 hours | 30 fold | 3300 µM | 6600 µM | much more efficiently than β-lap | 115 µM | Cc1cc(=O)[nH]c2c1C(=O)c1c(C)cc(=O)n(C)c1C2=O [DNQ, Deoxynyboquinone] | – |
